Test results published in ChEMBL document CHEMBL4196043, “Discovery and optimization of 2-thio-5-amino substituted benzoquinones as potent anticancer agents” (Eur J Med Chem, 2018).

Legend:
PC-3 [1] = assay: Antiproliferative activity against human PC3 cells after 48 hrs by MTS assay; format: functional, cell-based; conditions: PC-3, 48 h
PC-3 [2] = assay: Growth inhibition of human PC3 cells at 10 uM after 48 hrs by MTS assay; format: functional; conditions: PC-3, 48 h, read-out: GI
[3] = Aqueous solubility of the compound in water by HPLC-UV spectrophotometric analysis; format: physicochemical
A549 [4] = assay: Growth inhibition of human A549 cells at 10 uM after 48 hrs by MTS assay; format: functional; conditions: A549, 48 h, read-out: GI
BGC-823 = assay: Growth inhibition of human BGC823 cells at 10 uM; format: functional; conditions: read-out: GI
[5] = Selectivity index, ratio of IC50 for human HELF to IC50 for human PC3 cells; format: toxicity; conditions: HELF cells and PC3 cells, read-out: Ratio IC50
[6] = Antiproliferative activity against human HELF after 48 hrs by MTS assay
HCT-116 = assay: Antiproliferative activity against human HCT116 cells after 48 hrs by MTS assay; format: functional, cell-based; conditions: HCT-116, 48 h
A549 [7] = assay: Antiproliferative activity against human A549 cells after 48 hrs by MTS assay; format: functional, cell-based; conditions: A549, 48 h
SW480 = assay: Antiproliferative activity against human SW480 cells after 48 hrs by MTS assay; format: functional, cell-based; conditions: SW480, 48 h
MCF7 = assay: Antiproliferative activity against human MCF7 cells after 48 hrs by MTS assay; format: functional, cell-based; conditions: MCF7, 48 h
A-375 = assay: Antiproliferative activity against human A375 cells after 48 hrs by MTS assay; format: functional, cell-based; conditions: A-375, 48 h

Row | IC50 (PC-3 [1]) [nM] | Structure (SMILES) | inhibition of growth at 10 µM (PC-3 [2]) [%] | further results
1 | 4670 | C=CCSC1=CC(=O)C(NCCC(=O)OC)=CC1=O |  | 
2 | 2770 | C=CCSC1=CC(=O)C(NCCNC(C)=O)=CC1=O |  | 
3 | 1570 | C=CCSC1=CC(=O)C(NCCCN)=CC1=O |  | 
4 | 2170 | C=CCSC1=CC(=O)C(NCCCNCCO)=CC1=O |  | 
5 | 720 | C=CCSC1=CC(=O)C(NCCO)=CC1=O |  | 
6 | 3980 | C=CCSC1=CC(=O)C(NCC(O)CO)=CC1=O (stereo not drawn) |  | 
7 | 394 | C=CCSC1=CC(=O)C(NCCOCCO)=CC1=O |  | 
8 | 678 | C=CCSC1=CC(=O)C(NCCCO)=CC1=O |  | 
9 | 461 | C=CCSC1=CC(=O)C(NCCCCO)=CC1=O |  | 

Further lines, the molecule ahead of its results:

Row | Structure (SMILES) | IC50 (PC-3 [1]) [nM] | inhibition of growth at 10 µM (PC-3 [2]) [%] | further results
10 | C=C(C)CSC1=CC(=O)C(NCC(C)O)=CC1=O (stereo not drawn) |  | 61.9 | 
11 | C=CCSC1=CC(=O)C(NCCS(C)(=O)=O)=CC1=O | 1540 |  | 
12 | CC(O)CNC1=CC(=O)C(SC/C=C/c2cccnc2)=CC1=O (stereo not drawn) |  | 9.45 | 
13 | C=C(CSC1=CC(=O)C(NCC(C)O)=CC1=O)c1ccccc1 (stereo not drawn) |  | 11.8 | 
14 | C=C(Cl)CSC1=CC(=O)C(NCC(C)O)=CC1=O (stereo not drawn) |  | 20 | 
15 | C=CCSC1=CC(=O)C(NCCCNC)=CC1=O.Cl | 314 |  | solubility [3]: > 200 mg/mL
16 | CC(O)CNC1=CC(=O)C(SC2C=CCCC2)=CC1=O (stereo not drawn) |  | 46.9 | 
17 | C=CCSC1=CC(=O)C(NCCP(=O)(OCC)OCC)=CC1=O | 701 |  | 
18 | C/C=C/CSC1=CC(=O)C(NCC(C)O)=CC1=O (stereo not drawn) |  | 67.6 | 
19 | C=CCSC1=CC(=O)C(NCCN2CCNC2=O)=CC1=O | 2190 |  | 
20 | C=CCSC1=CC(=O)C(N[C@H]2CC[C@@H](N)CC2)=CC1=O | 483 |  | 
21 | C=CCSC1=CC(=O)C(NCCCN2CCOCC2)=CC1=O | 1460 |  | 
22 | C=CCSC1=CC(=O)C(NCCCN(C)C)=CC1=O.Cl | 910 |  | solubility [3]: > 200 mg/mL
23 | C=CCSC1=CC(=O)C(NCCCl)=CC1=O | 602 |  | 
24 | CC(O)CNC1=CC(=O)C(SC/C=C/c2ccccc2)=CC1=O (stereo not drawn) |  | 3.75 | 
25 | C=CCSC1=CC(=O)C(NCC(C)O)=CC1=O (stereo not drawn) | 5000 | 88 | inhibition of growth at 10 µM (A549 [4]): 85.5%; inhibition of growth at 10 µM (BGC-823): 88.5%
26 | CC(O)CNC1=CC(=O)C(SC/C=C/c2ccc(F)cc2)=CC1=O (stereo not drawn) |  | 12.2 | 
27 | COc1ccccc1/C=C/CSC1=CC(=O)C(NCC(C)O)=CC1=O (stereo not drawn) |  | 5.9 | 
28 | C=CCSC1=CC(=O)C(N[C@H]2CC[C@H](O)CC2)=CC1=O | 330 |  | solubility [3]: < 1 mg/mL
29 | C=CCSC1=CC(=O)C(N[C@H]2CC[C@H](N)CC2)=CC1=O.Cl | 224 |  | selectivity ratio [5]: 47; IC50 [6]: 10500 nM; IC50 (HCT-116): 408 nM; IC50 (A549 [7]): 376 nM; IC50 (SW480): 1220 nM; IC50 (MCF7): 259 nM; solubility [3]: 23.2 mg/mL; IC50 (A-375): 220 nM
